From patent publication US20070004660A1, “Synergistic Modulation of Flt3 Kinase Using Alkylquinolines and Alkylquinazolines” (priority 2005, published 2007)

Experiments:
MV4-11 cells = assay: Inhibition of MV4-11 cell proliferation (CellTiterGlo, 72 h); type: cell-based; conditions: Homo sapiens; 72 h growth inhibition; uncertainty ±20%
Protocol: MV4-11 cells cannot grow and survive without active FLT3ITD.
To measure proliferation inhibition by test compounds, the luciferase based CellTiterGlo reagent (Promega), which quantifies total cell number based on total cellular ATP concentration, was used. Cells are plated at 10,000 cells per well in 100 ul of in RPMI media containing penn/strep, 10% FBS and 1 ng/ml GM-CSF or 1 ng/ml IL-3 for MV4-11 and Baf3 cells respectively.
Compound dilutions or 0.1% DMSO (vehicle control) are added to cells and the cells are allowed to grow for 72 hours at standard cell growth conditions (37° C., 5% CO2). For activity measurements in MV4-11 cells grown in 50% plasma, cells were plated at 10,000 cells per well in a 1:1 mixture of growth media and human plasma (final volume of 100 μL). To measure total cell growth an equal volume of CellTiterGlo reagent was added to each well, according to the manufacturer's instructions, and luminescence was quantified. Total cell growth was quantified as the difference in luminescent counts (relative light units, RLU) of cell number at Day 0 compared to total cell number at Day 3 (72 hours of growth and/or compound treatment). One hundred percent inhibition of growth is defined as an RLU equivalent to the Day 0 reading. Zero percent inhibition was defined as the RLU signal for the DMSO vehicle control at Day 3 of growth. All data points are an average of triplicate samples. […] Inhibition and IC50 data analysis was done with GraphPad Prism using a non-linear regression fit with a multiparamater, sigmoidal dose-response (variable slope) equation.
MV4-11 cells express the FLT3 internal tandem duplication mutation, and thus are entirely dependent upon FLT3 activity for growth. […] In contrast, the Baf3 cell proliferation is driven by the cytokine IL-3 and thus are used as a non-specific toxicity control for test compounds.

wild-type FLT3 receptor = target: T1, wild-type FLT3 receptor (Homo sapiens, UniProt P36888); assay: Cell-based FLT3 receptor ELISA (FLT ligand-induced phosphorylation in Baf3 FLT3 cells); conditions: 100 ng/mL Flt ligand, uncertainty ±20%
T1 construct: host or cells: Baf3 (murine B cell lymphoma line), stably transfected
T1 sequence (P36888 27-993): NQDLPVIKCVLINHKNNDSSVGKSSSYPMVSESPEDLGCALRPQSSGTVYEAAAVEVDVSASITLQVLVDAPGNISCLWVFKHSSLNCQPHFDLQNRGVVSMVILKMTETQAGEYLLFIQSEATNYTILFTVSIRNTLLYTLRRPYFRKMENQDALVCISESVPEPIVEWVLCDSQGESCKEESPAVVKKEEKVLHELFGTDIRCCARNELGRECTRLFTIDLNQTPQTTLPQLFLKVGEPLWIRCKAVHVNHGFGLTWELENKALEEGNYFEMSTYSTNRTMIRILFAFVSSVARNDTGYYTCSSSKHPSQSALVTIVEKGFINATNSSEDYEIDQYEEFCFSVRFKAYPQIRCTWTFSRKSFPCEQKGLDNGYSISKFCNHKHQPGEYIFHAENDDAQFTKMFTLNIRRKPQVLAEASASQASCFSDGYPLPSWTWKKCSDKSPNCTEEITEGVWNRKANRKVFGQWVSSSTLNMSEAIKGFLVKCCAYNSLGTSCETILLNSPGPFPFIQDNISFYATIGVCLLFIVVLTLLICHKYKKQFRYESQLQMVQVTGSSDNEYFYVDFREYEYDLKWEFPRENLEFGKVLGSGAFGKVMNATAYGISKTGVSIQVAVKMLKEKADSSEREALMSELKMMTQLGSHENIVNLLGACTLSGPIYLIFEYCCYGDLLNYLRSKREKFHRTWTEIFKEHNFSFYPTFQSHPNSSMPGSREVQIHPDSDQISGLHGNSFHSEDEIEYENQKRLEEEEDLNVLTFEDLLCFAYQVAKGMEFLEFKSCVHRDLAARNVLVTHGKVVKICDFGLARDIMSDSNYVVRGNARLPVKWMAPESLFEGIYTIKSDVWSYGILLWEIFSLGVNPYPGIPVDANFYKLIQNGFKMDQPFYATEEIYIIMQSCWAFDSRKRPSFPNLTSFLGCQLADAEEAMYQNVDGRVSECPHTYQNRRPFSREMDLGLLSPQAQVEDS
Protocol: Specific cellular inhibition of FLT ligand-induced wild-type FLT3 phosphorylation was measured in the following manner: Baf3 FLT3 cells overexpressing the FLT3 receptor were obtained from Dr. Michael Heinrich (Oregon Health and Sciences University). The Baf3 FLT3 cell lines were created by stable transfection of parental Baf3 cells (a murine B cell lymphoma line dependent on the cytokine IL-3 for growth) with wild-type FLT3. Cells were selected for their ability to grow in the absence of IL-3 and in the presence of FLT3 ligand. Baf3 cells were maintained in RPMI 1640 with 10% FBS, penn/strep and 10 ng/ml FLT ligand at 37° C., 5% CO2. To measure direct inhibition of the wild-type FLT3 receptor activity and phosphorylation a sandwich ELISA method was developed similar to those developed for other RTKs (see Sadick, M D, Sliwkowski, M X, Nuijens, A, Bald, L, Chiang, N, Lofgren, J A, Wong W L T. Analysis of Heregulin-Induced ErbB2 Phosphorylation with a High-Throughput Kinase Receptor Activation Enzyme-Linked Immunsorbent Assay, Analytical Biochemistry. 1996; 235:207-214 and Baumann C A, Zeng L, Donatelli R R, Maroney A C. Development of a quantitative, high-throughput cell-based enzyme-linked immunosorbent assay for detection of colony-stimulating factor-1 receptor tyrosine kinase inhibitors. J Biochem Biophys Methods. 2004; 60:69-79.). 200 μL of Baf3FLT3 cells (1×10^6 /mL) were plated in 96 well dishes in RPMI 1640 with 0.5% serum and 0.01 ng/mL IL-3 for 16 hours prior to 1 hour compound or DMSO vehicle incubation. Cells were treated with 100 ng/mL Flt ligand (R&D Systems Cat# 308-FK) for 10 min. at 37° C. Cells were pelleted, washed and lysed in 100 ul lysis buffer (50 mM Hepes, 150 mM NaCl, 10% Glycerol, 1% Triton-X-100, 10 mM NaF, 1 mM EDTA, 1.5 mM MgCl2, 10 mM NaPyrophosphate) supplemented with phosphatase (Sigma Cat# P2850) and protease inhibitors (Sigma Cat #P8340). Lysates were cleared by centrifugation at 1000×g for 5 minutes at 4° C. Cell lysates were transferred to white wall 96 well microtiter (Costar #9018) plates coated with 50 ng/well anti-FLT3 antibody (Santa Cruz Cat# sc-480) and blocked with SeaBlock reagent (Pierce Cat#37527). Lysates were incubated at 4° C. for 2 hours. Plates were washed 3× with 200 ul/well PBS/0.1% Triton-X-100. Plates were then incubated with 1:8000 dilution of HRP-conjugated anti-phosphotyrosine antibody (Clone 4G10, Upstate Biotechnology Cat#16-105) for 1 hour at room temperature. Plates were washed 3× with 200 ul/well PBS/0.1% Triton-X-100. Signal detection with Super Signal Pico reagent (Pierce Cat#37070) was done according to manufacturer's instruction with a Berthold microplate luminometer. All data points are an average of triplicate samples. […] Inhibition and IC50 data analysis was done with GraphPad Prism using a non-linear regression fit with a multiparamater, sigmoidal dose-response (variable slope) equation.

[1] = target: T2, isolated kinase domain of the human FLT3 receptor (a.a. 571-993) (Homo sapiens, UniProt P36888); assay: FLT3 fluorescence polarization kinase assay; type: biochemical; conditions: 150 uM ATP; uncertainty ±10%
T2 construct: human FLT3 receptor (a.a. 571-993)
T2 sequence (P36888 571-993): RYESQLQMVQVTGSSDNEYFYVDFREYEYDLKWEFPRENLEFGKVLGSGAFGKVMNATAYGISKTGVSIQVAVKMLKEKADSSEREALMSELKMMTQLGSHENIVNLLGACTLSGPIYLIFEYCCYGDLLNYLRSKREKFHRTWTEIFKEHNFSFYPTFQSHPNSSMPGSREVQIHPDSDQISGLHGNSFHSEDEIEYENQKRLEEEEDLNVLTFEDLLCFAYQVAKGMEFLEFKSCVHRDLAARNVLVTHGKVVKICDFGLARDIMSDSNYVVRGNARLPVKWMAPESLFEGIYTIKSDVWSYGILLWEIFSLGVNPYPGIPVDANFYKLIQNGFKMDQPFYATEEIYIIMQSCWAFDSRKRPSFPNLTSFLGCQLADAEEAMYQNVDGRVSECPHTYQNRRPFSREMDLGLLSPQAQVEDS
Protocol: The FLT3 FP assay utilizes the fluorescein-labeled phosphopeptide and the anti-phosphotyrosine antibody included in the Panvera Phospho-Tyrosine Kinase Kit (Green) supplied by Invitrogen. When FLT3 phosphorylates polyGlu4Tyr, the fluorescein-labeled phosphopeptide is displaced from the anti-phosphotyrosine antibody by the phosphorylated poly Glu4Tyr, thus decreasing the FP value. The FLT3 kinase reaction is incubated at room temperature for 30 minutes under the following conditions: 10 nM FLT3 571-993, 20 ug/mL poly Glu4Tyr, 150 uM ATP, 5 mM MgCl2, 1% compound in DMSO. The kinase reaction is stopped with the addition of EDTA. The fluorescein-labeled phosphopeptide and the anti-phosphotyrosine antibody are added and incubated for 30 minutes at room temperature.
All data points are an average of triplicate samples. Inhibition and IC50 data analysis was done with GraphPad Prism using a non-linear regression fit with a multiparamater, sigmoidal dose-response (variable slope) equation.

IC50 (MV4-11 cells) [nM] | IC50 (wild-type FLT3 receptor) [nM] | IC50 [1] [nM] | Compound
330 | 357 | – | COc1cc2ncnc(C3CCN(C(=O)Nc4ccc(C5CCNCC5)cc4)CC3)c2cc1OC [Example 64, 4-(6,7-Dimethoxy-quinazolin-4-yl)-piperidine-1-carboxylic acid (4-piperidin-4-yl-phenyl)-amide]
– | 37 | 260 | CN1CCC(Oc2ccc3c(C4CCN(C(=O)Nc5ccc(N6CCOCC6)cc5)CC4)ncnc3c2)CC1 [Example 127, 4-[7-(1-Methyl-piperidin-4-yloxy)-quinazolin-4-yl]-piperidine-1-carboxylic acid (4-morpholin-4-yl-phenyl)-amide]
7000 | > 3000 | – | COc1cc2ncnc(C3CCN(C(=O)Nc4ccc(Cl)cc4)CC3)c2cc1OC [Example 49, 4-(6,7-Dimethoxy-quinazolin-4-yl)-piperidine-1-carboxylic acid (4-chloro-phenyl)-amide]
– | 2 | 8 | O=C(Nc1ccc(N2CCOCC2)cc1)N1CCC(c2ncnc3cc(OCCCN4CCNCC4)ccc23)CC1 [Example 123, 4-[7-(3-Piperazin-1-yl-propoxy)-quinazolin-4-yl]-piperidine-1-carboxylic acid (4-morpholin-4-yl-phenyl)-amide]
